According to patent US20260275279A1, “THYROCYTES AND USES THEREOF” (LifeNet Health, priority 2023, published 2026):
Read-outs that look alike come from different tables or passages of the source.

Experiments:
[1] = tested on: T3/T4 synthesis; test: Example 10 3D culture TDC screening, T3/T4 synthesis by ELISA and LC-MS/MS; assay type: cell-based, human
Method: For TDC Screening, these procedures were followed: • Prepare the Plate by adding 50 μL of 10 mg/ml of Matrigel, then polymerize the Matrigel at 37° C. for 1 hr. • Thaw the thyrocytes in 37° C. water bath. • Resuspend the cells in humanized medium (h7H). • Seed the cells at the optimal seeding density, 7,500 cells per 0.32 cm2. • Culture the cells in h7H medium. • Exchange the medium on Day 2, 5, 7, 9 and 12. • Start stimulating the cells with activators (e.g., bTSH, hTSH, M22, K!-18, ML-109) on Day 2 • Treatment with the activator is between Day 2-14 • Compound treatment starts on Day 9. • 8 doses: Concentrations (10^−10 to 10^−4M) • Serial dilutions were made in DMSO (Dilution factor 1:1000) • Compounds were added to the media • Day 12: Refresh media with the compound • Day 14: Collect the supernatant for the T4 analysis by ELISA and LC-MS/MS.

[2] = tested on: T4 synthesis; test: Reference chemical evaluation: inhibition of T4 synthesis in 3D microtissue cultures; assay type: cell-based, human; conditions: for effect on T4 levels: 0.0001 to 100 μM; for IC50: 120-h treatment days 9-14, 1 mIU/mL bovine TSH, 7,500 cells/well, read-out: Average half-maximal inhibitory concentrations (IC50), T4 synthesis
Method: 3D cultures with cell seeding density of 7,500 cells/well were treated with 1 mIU/mL bovine TSH on days 2, 5, 7, 9, and 12. For each studied compound, cells were dosed on days 9 and 12 with concentrations ranging from 0.0001 to 100 μM across a log-fold titration. T4 levels were measured as described. All measured data were normalized to DMSO vehicle control.
Images are shown from representative donor lots. Values were normalized to the number of cells seeded per well. Significance was calculated in MiniTab (State College, PA) using either Student's t-test between 2 groups or One-way ANOVA with Tukey post hoc testing when comparing 3 groups or more to determine statistical significance with 95% confidence and *p<0.05 for statistical significance. GraphPad Prism v.9 was used to determine EC50 and EC90. Four-parameter nonlinear regression fit was used to determine the half-maximal inhibition concentration IC50 using GraphPad Prism v.9.
Established antagonists of thyroid hormone production were selected to determine the concentration-response profiles in 3D cultures for TDC screening purposes (FIG. 21).

[3] = tested on: 3D thyrocyte cell culture; conditions: 1.0×10^−10 to 1.0×10^−4 M
Method: After collecting media for T4 measurement, backing tape was put on the back of the 3D culture 96-well plate. 100 μL of a 1:1 mixture of CellTiter-Glo® Luminescent Cell Viability Assay (Promega, Madison, WI) and HTCM was added into each well of the 3D cell culture plate. The plate was covered and shaken for 2 minutes on an orbital plate shaker at 500 rpm followed by a 10 minute incubation in the dark without shaking. Luminescence reading was recorded using a CLARIOStar (BMG Labtech) microplate reader.

Q: `Cn1cc[nH]c1=S` [methimazole, Methimazole] was tested. Which T3/T4 synthesis [1] did it give?
A: Its T3/T4 synthesis is “inhibited”.

Q: What about the “effect on T4 levels” value [2] of the same molecule?
A: Its value is “consistent concentration-dependent decrease in T4 levels”.

Q: `CCCc1cc(=O)[nH]c(=S)[nH]1` [6-propyl-2-thiouracil] was tested. Which T3/T4 synthesis [1] did it give?
A: The T3/T4 synthesis was “inhibited”.

Q: What about the “toxicity of inhibitor concentrations to the cells” value [3] of the same molecule?
A: Its value is “not toxic to the cells with the exception of 6-propyl-2-thiouracil for 2021159 at the highest dose”.

Q: What about the “effect on T4 levels” value [2] of the same molecule?
A: The value was “consistent concentration-dependent decrease in T4 levels”.

Q: What about the IC50 [2] of the same molecule?
A: The IC50 was 0.767 µM.

Q: And the IC50 ([2]; Homo sapiens, 120 h)?
A: Its IC50 is 0.659 µM.
